The values below come from PMC9719525, “Design of MMP-1 inhibitors via SAR transfer and experimental validation” (Scientific Reports, 2022).

Assay [1] deals with T1, matrix metalloproteinase 1 (MMP-1) (Homo sapiens, UniProt P03956).
T1 construct: gene MMP1
T1 sequence (P03956 100-469): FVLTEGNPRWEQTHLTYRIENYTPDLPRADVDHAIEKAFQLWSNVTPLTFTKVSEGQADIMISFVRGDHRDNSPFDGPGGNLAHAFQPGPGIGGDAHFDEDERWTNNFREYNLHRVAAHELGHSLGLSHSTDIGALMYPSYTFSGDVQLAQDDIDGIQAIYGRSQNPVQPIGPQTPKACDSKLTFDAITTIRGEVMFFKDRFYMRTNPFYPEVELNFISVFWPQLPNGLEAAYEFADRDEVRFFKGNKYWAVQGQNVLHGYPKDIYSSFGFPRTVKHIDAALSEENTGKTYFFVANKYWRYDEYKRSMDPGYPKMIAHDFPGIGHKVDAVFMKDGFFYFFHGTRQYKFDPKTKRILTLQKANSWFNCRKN
As to the kind of experiment: colorimetric MMP-1 enzyme assay; compound previously reported (ref […]), resynthesized here. Format: biochemical. Particulars: cited from earlier work.

Assay [2] has as its target T1, matrix metalloproteinase 1 (MMP-1). Briefly: colorimetric MMP-1 enzyme assay (ENZ BML-AK404-0001 kit, A412nm). Format: biochemical.

A word on the IC50: it is the point on the concentration scale where inhibition reaches its midpoint.

As for `C[C@H](C(=O)NO)N1CC[C@@](C)(c2ccc(C(F)(F)F)cc2)C1=O` [compound 4], in assay [1], the IC50 was 0.12 ± 0.01 µM.

For `COc1ccc([C@]2(C)CCN([C@H](C)C(=O)NO)C2=O)cc1` [compound 5, (R)-N-hydroxy-2-((S)-3-(4-methoxyphenyl)-3-methyl-2-oxopyrrolidin-1-yl)propenamide], the IC50 in assay [2] amounted to 0.36 ± 0.04 µM.

Take `C[C@H](C(=O)NO)N1CC[C@@](C)(c2ccc(Cl)cc2)C1=O` [compound 6, (R)-N-hydroxy-2-((S)-3-(4-chlorophenyl)-3-methyl-2-oxopyrrolidin-1-yl)propenamide]: the half-maximal inhibitory concentration (IC50) in assay [2] (read-out: IC50 (μM)^a) came out at 0.034 ± 0.026 µM.

For `Cc1ccc([C@]2(C)CCN([C@H](C)C(=O)NO)C2=O)cc1` [compound 7, (R)-N-hydroxy-2-((S)-3-(p-tolyl)-3-methyl-2-oxopyrrolidin-1-yl)propenamide], in assay [2] (read-out: IC50 (μM)^a), the IC50 came out at 0.5 ± 0.023 µM.
